Data on 4 compounds can be found in US10154994B2, “Ophthalmic formulations of tyrosine kinase inhibitors, methods of use thereof, and preparation methods thereof” (Allgenesis Biotherapeutics Inc., priority 2015, dated 2018).

For this data set, the system named is cornea suture-induced neovascularization. Conditions: for CNV Branching / CNV Length / CNV Area (~%): 6 eyes; for CNV Area (~%): percentage estimate of involved corneal circumference. On the procedure: For this study, New Zealand white rabbits at approximately 5 months old with no visible signs of ocular defects were selected. Suture placement was performed on Day 1. Prior to surgery, the right eye of each animal was dilated using a mydriatic agent (1% tropicamide), and the conjunctiva was flushed with approximately 10 mL benzalkonium chloride (Zephiran™) diluted in sterile water, U.S.P. to 1:10,000 (v/v). Saline (0.9%) was also used to flush the eye along with benzalkonium chloride. Animals were anesthetized with isoflurane/oxygen during the procedure. Hydration of the eyes was maintained by irrigation with saline solution, as needed. The procedure was conducted under a dissecting or surgical microscope. The cornea of the right eye was exposed using an eyelid speculum. The central corneal area was appropriately marked as considered necessary by the surgeon. […] The outer point of suture placement was chosen near the limbus (1-2 mm), and the inner suture point was chosen near the corneal center, equidistant from the limbus, to obtain standardized angiogenic responses. The left eye remained untreated.
The study design is shown below in Table 7:
Dose formulations were administered by subconjunctival injection to the sutured right eye of each animal of the Avastin control group (5 mg) on Days 1 and 7, at a dose volume of 200 μL/dose immediately post suture placement. Dose formulations were given three times daily (TID) for the group administered with suspension vehicle, 0.3% Axitinib, 0.3% Nintedanib Ethanesulfonate, or 0.3% Sorafenib Tosylate for a duration of 14 days. […] The dosing volume was one 35 μL drop per dose. After the dose was administered, the upper and lower eyelids were gently held together to prevent the loss of material and to distribute the dose across the eye.
Ocular imaging and neovascularization assessments were performed once pre-treatment, and also once on Days 7 and 14. A pre-anesthetic cocktail of Ketamine (15 mg/kg) and Dexmedetomidine (0.25 mg/kg) was administered subcutaneously, and the animals were maintained with isoflurane/oxygen mix prior to and during the procedure. Still images of the cornea were taken from both eyes (from the center of each eye, nasally and temporally). Images were evaluated qualitatively and quantitatively to assess the degree of corneal neovascularization (CNV), and to determine the area affected by CNV. The length of the vessel incursion was measured from the limbus to the distal end of the encroaching CNV using a digital micrometer (in millimeters) for each selected image. Qualitative assessments included the percentage estimate of involved corneal circumference (using multiple images as necessary), and vessel branching.

Setting [1] is: topical TID for 14 days, study conclusion.

Structures can show the parent of a compound that is named as a salt. Where two headings read alike, the source gives them in different places.

With `CNC(=O)c1ccccc1Sc1ccc2c(/C=C/c3ccccn3)n[nH]c2c1` [Axitinib], where the note is “Day 7”, the “corneal neovascularization observed” value was “not observed”, the “CNV Branching” value is recorded as “very slight to moderate”, the “CNV Length” value is given as “approximately 0.5 mm” and the “CNV Area (~%)” value is given as ~20%. In addition, for the setting “topical TID for 14 days”, the “tolerability in the CNV study” value is listed as “well-tolerated”. Besides, under setting [1], the “efficacy in preventing or slowing CNV progression” value is “efficacious in preventing or slowing CNV progression”.
Regarding `COC(=O)c1ccc2c(c1)NC(=O)/C2=C(\Nc1ccc(N(C)C(=O)CN2CCN(C)CC2)cc1)c1ccccc1` [Nintedanib Ethanesulfonate], under “Day 7”, the “corneal neovascularization observed” value was “not observed”, the “efficacy compared with Avastin” value is given as “comparable to one given Avastin”, the “CNV Branching” value is listed as “very slight to moderate” and the “CNV Length” value is recorded as “approximately 0.5 mm”. Moreover, the “CNV Area (~%)” value (Day 7) is listed as ~20%. For the same compound, for the setting “Day 14”, the “corneal neovascularization observed” value is recorded as “sparse” and the “CNV Branching” value is given as “no branching”. Moreover, for the setting “Day 15”, the “efficacy compared with Avastin (vessel length, surface area and vessel branching; words)” value was “slightly more efficacious”. In addition, the “tolerability in the CNV study” value (rabbit, in vivo) is “well-tolerated”. For the same compound, the “efficacy versus Avastin in preventing or slowing CNV progression” value (study conclusion) was “more efficacious, or at least comparable to Avastin”. The “efficacy in preventing or slowing CNV progression” value under setting [1] was “efficacious in preventing or slowing CNV progression”.
For `CNC(=O)c1cc(Oc2ccc(NC(=O)Nc3ccc(Cl)c(C(F)(F)F)c3)cc2)ccn1` [Sorafenib Tosylate], the “corneal neovascularization observed” value (Day 7 and Day 14) was “Slight corneal neovascularization”.
“Avastin: active control, 5 mg/eye by subconjunctival injection”: under “Day 7”, the “CNV Branching” value is reported as 0, the “CNV Length” value is 0 mm and the “CNV Area (~%)” value is 0%. Also, under “Day 14”, the “corneal neovascularization observed” value was “minimal CNV”, the “CNV Branching” value amounted to 1, the “CNV Length” value came out at 0.45 mm and the “CNV Area (~%)” value was 13%. For the same compound, for the setting “Pre”, the “CNV Branching” value is listed as 0, the “CNV Length” value came out at 0 mm and the “CNV Area (~%)” value is 0%.
